Measurements reported in ChEMBL document CHEMBL6153118, “Structure Optimization of Natural Product Catalpol to Obtain Novel and Potent Analogs against Heart Failure” (J Med Chem, 2025).
The source made the active and inactive calls. The rule behind the calls is not given here.

Legend:
H9c2 [1] = experiment: Cytoprotective activity against OGD-induced myocardial ischemic injury in rat H9c2 cells assessed as decrease in LDH level at 5 to 50 uM preincubated for 12 hrs followed by exposure to OGD condition for 3 hrs by UV absorption analysis; assay type: functional, cell-based; details: dose 5-50 µM, time 15.0 hrs
[2] = Toxicity in C57BL/6J mouse assessed as animal mortality at 400 mg/kg, po administered as single dose measured for 7 days; assay type: organism-based; details: in vivo, 168 h, time 7 day
[3] = Toxicity in C57BL/6J mouse assessed as change in relative organ weights at 400 mg/kg, po administered as single dose measured for 7 days; assay type: organism-based; details: in vivo, 168 h, time 7 day
[4] = Metabolic stability in human liver microsomes assessed as half life measured for 5 to 60 mins in presence of NADPH by LC-MS/MS analysis; assay type: ADME, Microsome; details: time 5-60 min
[5] = AUC (0 to t) in C57/6J mouse at 20 mg/kg, po measured for 24 hrs; assay type: ADME, organism-based; details: in vivo
[6] = MRT (0 to t) in C57/6J mouse at 5 mg/kg, iv measured for 24 hrs; assay type: ADME, organism-based; details: in vivo
H9c2 [7] = experiment: Inhibition of cardiomyocyte hypertrophy in rat H9c2 cells assessed as decrease in ISO-induced ANP level at 50 uM by Western blot analysis; assay type: functional, cell-based
Cardiac muscle cell = experiment: Cytoprotective activity against OGD-induced myocardial ischemic injury in neonatal rat primary cardiomyocytes assessed as decrease in cellular damage at 1 uM preincubated for 12 hrs followed by exposure to OGD condition for 3 hrs; assay type: functional, cell-based; details: time 15.0 hrs
Mus musculus [8] = experiment: Inhibition of cardiomyocyte hypertrophy in ISO-induced heart failure C57BL/6J mouse at 5 to 20 mg/kg/day, po for 14 days; assay type: functional, organism-based; details: dose 5-20 mg/kg/day, time 14.0 day
Mus musculus [9] = experiment: Inhibition of cardiomyocyte hypertrophy in ISO-induced heart failure C57BL/6J mouse assessed as decrease in GSK-3beta phosphorylation in heart tissue administered orally daily for 14 days by Western blot analysis; assay type: functional, organism-based; details: dose 5-20 mg/kg/day, route po, time 14.0 day
CYP2D6 = CYP2D6 (Homo sapiens, UniProt P10635); experiment: Inhibition of CYP2D6 in human liver microsomes preincubated for 10 mins followed by NADPH addition measured after 10 mins by LC/MS/MS analysis relative to control; assay type: ADME, Microsome; details: time 20 min
Sequence of CYP2D6 (P10635 whole entry): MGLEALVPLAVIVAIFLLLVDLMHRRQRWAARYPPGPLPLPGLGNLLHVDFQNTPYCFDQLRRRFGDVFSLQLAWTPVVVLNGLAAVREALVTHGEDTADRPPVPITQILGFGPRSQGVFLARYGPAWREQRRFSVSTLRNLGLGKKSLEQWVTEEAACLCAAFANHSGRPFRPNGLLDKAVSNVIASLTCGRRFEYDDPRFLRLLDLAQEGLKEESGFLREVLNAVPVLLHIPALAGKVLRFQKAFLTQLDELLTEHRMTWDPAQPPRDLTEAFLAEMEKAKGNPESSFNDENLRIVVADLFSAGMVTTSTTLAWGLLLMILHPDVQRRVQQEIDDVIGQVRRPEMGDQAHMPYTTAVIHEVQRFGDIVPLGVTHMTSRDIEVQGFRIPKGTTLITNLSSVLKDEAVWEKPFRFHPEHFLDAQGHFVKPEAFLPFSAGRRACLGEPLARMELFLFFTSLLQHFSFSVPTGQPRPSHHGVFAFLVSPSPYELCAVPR

[10] = Half life in C57/6J mouse at 5 mg/kg, iv measured for 24 hrs; assay type: ADME, organism-based; details: in vivo
Mus musculus [11] = experiment: Inhibition of cardiomyocyte hypertrophy in ISO-induced heart failure C57BL/6J mouse assessed as decrease in ratio of p-GSK-3beta to GSK-3beta levels in heart tissue administered orally daily for 14 days by Western blot analysis; assay type: functional, organism-based; details: dose 5-20 mg/kg/day, route po, time 14.0 day
Mus musculus [12] = experiment: Inhibition of cardiomyocyte hypertrophy in ISO-induced heart failure C57BL/6J mouse assessed as decrease in ratio of p-AKT to AKT levels in heart tissue administered orally daily for 14 days by Western blot analysis; assay type: functional, organism-based; details: dose 5-20 mg/kg/day, route po, time 14.0 day
CYP1A2 = molecular target: T1, CYP1A2 (Homo sapiens, UniProt P05177); experiment: Inhibition of CYP1A2 in human liver microsomes preincubated for 10 mins followed by NADPH addition measured after 10 mins by LC/MS/MS analysis relative to control; assay type: ADME, Microsome; details: time 20 min
T1 sequence (P05177 whole entry): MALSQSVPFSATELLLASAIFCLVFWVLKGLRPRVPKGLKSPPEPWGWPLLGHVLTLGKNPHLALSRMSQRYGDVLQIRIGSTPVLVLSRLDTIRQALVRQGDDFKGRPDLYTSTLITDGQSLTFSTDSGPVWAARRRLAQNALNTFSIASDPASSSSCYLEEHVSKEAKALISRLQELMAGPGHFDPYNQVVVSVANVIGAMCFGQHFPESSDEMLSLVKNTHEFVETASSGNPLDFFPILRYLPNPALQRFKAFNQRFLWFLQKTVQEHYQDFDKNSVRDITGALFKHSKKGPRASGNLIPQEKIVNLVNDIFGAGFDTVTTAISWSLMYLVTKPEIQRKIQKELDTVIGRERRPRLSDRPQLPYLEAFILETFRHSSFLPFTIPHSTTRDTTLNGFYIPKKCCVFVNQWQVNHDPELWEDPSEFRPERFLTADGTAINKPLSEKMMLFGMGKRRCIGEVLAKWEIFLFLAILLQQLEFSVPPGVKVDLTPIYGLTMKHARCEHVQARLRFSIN

[13] = Cmax in C57/6J mouse at 5 mg/kg, iv measured for 24 hrs; assay type: ADME, organism-based; details: in vivo
H9c2 [14] = experiment: Inhibition of apoptosis in ISO-treated rat H9c2 cells by Annexin V-FITC/PI staining based flow cytometry; assay type: functional, cell-based; details: dose 5-50 µM
Mus musculus [15] = experiment: Inhibition of cardiomyocyte hypertrophy in ISO-induced heart failure C57BL/6J mouse assessed as decrease in AKT phosphorylation in heart tissue administered orally daily for 14 days by Western blot analysis; assay type: functional, organism-based; details: dose 5-20 mg/kg/day, route po, time 14.0 day
Mus musculus [16] = experiment: Cardioprotective activity in ISO-induced heart failure C57BL/6J mouse assessed as fractional shortening in heart at 20 mg/kg/day, po for 14 days by echocardiography (reference value: 24.49 +/- 1.49 %); assay type: functional; details: time 14 day
CYP2C9 = CYP2C9 (Homo sapiens, UniProt P11712); experiment: Inhibition of CYP2C9 in human liver microsomes preincubated for 10 mins followed by NADPH addition measured after 10 mins by LC/MS/MS analysis relative to control; assay type: ADME, Microsome; details: time 20 min
Sequence of CYP2C9 (P11712 whole entry): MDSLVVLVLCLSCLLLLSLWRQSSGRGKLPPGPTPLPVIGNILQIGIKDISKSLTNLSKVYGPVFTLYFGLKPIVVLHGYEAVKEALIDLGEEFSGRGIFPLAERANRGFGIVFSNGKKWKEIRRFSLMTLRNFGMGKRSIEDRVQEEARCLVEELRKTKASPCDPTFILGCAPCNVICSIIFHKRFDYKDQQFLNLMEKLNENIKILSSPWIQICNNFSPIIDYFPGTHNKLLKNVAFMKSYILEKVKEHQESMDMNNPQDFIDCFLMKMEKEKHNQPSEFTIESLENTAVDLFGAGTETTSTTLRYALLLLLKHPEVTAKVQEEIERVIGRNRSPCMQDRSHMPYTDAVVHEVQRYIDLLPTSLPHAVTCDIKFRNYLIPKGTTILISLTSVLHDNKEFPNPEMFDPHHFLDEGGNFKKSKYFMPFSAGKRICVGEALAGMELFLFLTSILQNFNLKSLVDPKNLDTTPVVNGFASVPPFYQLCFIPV

Mus musculus [17] = experiment: Inhibition of cardiac fibrosis in ISO-induced heart failure C57BL/6J mouse at 5 to 20 mg/kg/day, po for 14 days; assay type: functional, organism-based; details: dose 5-20 mg/kg/day, time 14.0 day
Mus musculus [18] = experiment: Improvement in motor ability in ISO-induced heart failure C57BL/6J mouse assessed as increase in time of remote motion with rotarod at 5 to 20 mg/kg/day, po for 14 days; assay type: functional, organism-based; details: dose 5-20 mg/kg/day, time 14.0 day
Mus musculus [19] = experiment: Cardioprotective activity in ISO-induced heart failure C57BL/6J mouse assessed as ejection fraction in heart at 20 mg/kg/day, po for 14 days by echocardiography (reference value: 49.55 +/- 2.41 %); assay type: functional; details: time 14 day
Mus musculus [20] = experiment: Inhibition of cardiomyocyte hypertrophy in ISO-induced heart failure C57BL/6J mouse assessed as decrease in ANP level administered orally daily for 14 days by Western blot analysis; assay type: functional, organism-based; details: dose 5-20 mg/kg/day, route po, time 14.0 day
[21] = Oral bioavailability in C57/6J mouse at 20 mg/kg measured for 24 hrs; assay type: ADME, organism-based; details: in vivo
[22] = Metabolic stability in mouse liver microsomes assessed as intrinsic clearance measured for 5 to 60 mins in presence of NADPH by LC-MS/MS analysis; assay type: ADME, Microsome; details: time 5-60 min, read-out: CLH
Mus musculus [23] = experiment: Inhibition of cardiomyocyte hypertrophy in ISO-induced heart failure C57BL/6J mouse assessed as increase in Bcl-2 level in heart tissue at 5 to 20 mg/kg/day, po for 14 days by Western blot analysis; assay type: functional, organism-based; details: dose 5-20 mg/kg/day, time 14.0 day
[24] = molecular target: Voltage-gated inwardly rectifying potassium channel KCNH2 (Homo sapiens, UniProt Q12809); experiment: Inhibition of hERG at 30 uM; assay type: toxicity
Sequence of Voltage-gated inwardly rectifying potassium channel KCNH2 (Q12809 whole entry): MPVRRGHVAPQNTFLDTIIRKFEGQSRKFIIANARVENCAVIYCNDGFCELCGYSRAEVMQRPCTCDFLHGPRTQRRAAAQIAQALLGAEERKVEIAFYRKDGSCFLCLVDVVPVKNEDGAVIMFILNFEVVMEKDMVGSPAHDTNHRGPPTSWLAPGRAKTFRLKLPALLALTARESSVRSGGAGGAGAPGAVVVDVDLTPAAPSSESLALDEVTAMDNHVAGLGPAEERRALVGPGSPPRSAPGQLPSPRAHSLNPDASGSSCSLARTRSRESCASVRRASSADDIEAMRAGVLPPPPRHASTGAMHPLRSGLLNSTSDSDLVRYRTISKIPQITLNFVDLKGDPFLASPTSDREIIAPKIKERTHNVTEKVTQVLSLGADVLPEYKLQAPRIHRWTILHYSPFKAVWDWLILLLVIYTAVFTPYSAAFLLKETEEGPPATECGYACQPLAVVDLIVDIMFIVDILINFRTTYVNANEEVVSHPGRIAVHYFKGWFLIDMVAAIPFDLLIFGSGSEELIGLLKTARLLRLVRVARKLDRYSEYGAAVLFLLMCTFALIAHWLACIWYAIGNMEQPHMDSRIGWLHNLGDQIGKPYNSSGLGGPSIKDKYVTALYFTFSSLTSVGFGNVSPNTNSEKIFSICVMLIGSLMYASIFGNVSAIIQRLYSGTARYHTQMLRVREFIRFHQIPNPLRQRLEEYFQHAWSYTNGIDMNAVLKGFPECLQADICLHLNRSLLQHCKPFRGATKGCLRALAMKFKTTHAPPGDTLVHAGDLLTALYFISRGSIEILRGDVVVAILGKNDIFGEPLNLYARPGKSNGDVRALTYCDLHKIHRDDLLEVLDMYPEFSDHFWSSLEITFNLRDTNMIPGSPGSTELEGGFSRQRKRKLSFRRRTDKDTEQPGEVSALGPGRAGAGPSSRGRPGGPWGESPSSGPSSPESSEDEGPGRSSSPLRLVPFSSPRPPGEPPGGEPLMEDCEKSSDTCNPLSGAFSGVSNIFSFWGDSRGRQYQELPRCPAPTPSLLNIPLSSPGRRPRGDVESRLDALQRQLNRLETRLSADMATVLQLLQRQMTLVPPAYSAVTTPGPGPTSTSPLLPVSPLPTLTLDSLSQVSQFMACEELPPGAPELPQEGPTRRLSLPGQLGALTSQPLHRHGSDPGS

H9c2 [25] = experiment: Cytoprotective activity against OGD-induced myocardial ischemic injury in rat H9c2 cells assessed as decrease in cell death at 5 to 50 uM preincubated for 12 hrs followed by exposure to OGD condition for 3 hrs by crystal violet staining based analysis; assay type: functional; details: dose 5-50 µM, time 15.0 hrs
Mus musculus [26] = experiment: Inhibition of cardiomyocyte hypertrophy in ISO-induced heart failure C57BL/6J mouse at 5 to 20 mg/kg/day, po for 14 days by WGA staining based analysis; assay type: functional, organism-based; details: dose 5-20 mg/kg/day, time 14.0 day

In the case of `OC[C@H]1O[C@@H](O[C@@H]2OC=C[C@H]3[C@H](O)[C@@H]4O[C@]4(COc4ccc(C(F)(F)F)cc4)[C@@H]23)[C@H](O)[C@@H](O)[C@@H]1O`, the Activity (H9c2 [1]) is reported as “Active”, the Activity [2] is reported as “Non-toxic” and the Activity [3] is reported as “Non-toxic”. For the same compound, the half-life [4] was greater than 145 min, the AUC(0-t) at 24 h [5] was 1820 ng·h/mL and the MRT last at 24 h [6] was 31.2 min. For the same compound, the inhibition (H9c2 [7]) was “Active”, the Activity (Cardiac muscle cell) was “Active; Exhibited Moderate Effect” and the inhibition (Mus musculus [8]) was “Active; Exhibited Pronounced Therapeutic Effect Compared To Catal-Pol”. For the same compound, the inhibition (Mus musculus [9]) was “Dose-dependent-effect”, the inhibition at 10 min (CYP2D6) was 4.3% and the half-life [10] was 57 min. For the same compound, the inhibition (Mus musculus [11]) was “Dose-dependent-effect”, the inhibition (Mus musculus [12]) was “Dose-dependent-effect” and the inhibition at 10 min (CYP1A2) was 8%. For the same compound, the Cmax [13] was 2710 ng/mL, the inhibition (H9c2 [14]) was “Active; Exhibited Significantly Greater Decrease In Apoptotic Rate” and the inhibition (Mus musculus [15]) was “Dose-dependent-effect”. The Activity (Mus musculus [16]) was 31.27%, the inhibition at 10 min (CYP2C9) was 6.3% and the inhibition (Mus musculus [17]) was “Active”. The Activity (Mus musculus [18]) was “Active”, the Activity (Mus musculus [19]) was 58.46% and the inhibition (Mus musculus [20]) was “Dose-dependent-effect; Restored Anp Level To Physiological Level”. The bioavailability [21] was 41.8%, the CLint scaled [22] was less than 38 mL/min/kg and the inhibition (Mus musculus [23]) was “Active”. For the same compound, the “inhibition (INH)” value [24] was “Not_active”, the Activity (H9c2 [25]) was “Active; Exhibited Superior Protective Efficacy Than Catal-Pol” and the inhibition (Mus musculus [26]) was “Active”.
